Results reported in patent US11185527B2, “Methods and compositions relating to steroid hormone receptor-dependent cancers” (Wayne State University, priority 2017, dated 2021).
Where “and” joins values, the source holds several entries; their conditions need not be identical. Equal entries are not always repeated.

Key:
[1] = tested on: ARE-dependent promoter activation by AR; test: Counter screening assay: ARE-luciferase reporter in recombinant HeLa cells expressing AR; assay type: cell-based, human; details: testosterone-treated recombinant HeLa cells
From the text: FIG. 6B is a schematic diagram of the reporter system for the counter screening assay. Recombinant HeLa cells used in this assay are identical to the primary screening cells except for the absence of Gal4-ELK1 and substitution of the Gal4 elements in the promoter with a canonical ARE. In this case, testosterone causes cytosolic AR to translocate to the nucleus and bind to the ARE in the promoter resulting in activation of the luciferase reporter.
The cells generated for counter screening, are HeLa cells stably transduced with a lentiviral plasmid construct containing a minimal promoter-luciferase reporter and an upstream androgen response element (ARE) sequence. These HeLa cells were also transduced with a lentiviral expression plasmid encoding the full-length AR. These lentiviral constructs were made as follows. Custom synthesized PCR primers were used to amplify and clone the ARE sequence from a pG5luc plasmid construct containing an ARE sequence element into the pGreenFire1 ™-mCMV-EF1-Neo (Plasmid) at SpeI (upstream) and BamHI (downstream) sites. pG5luc Vector is well known and the complete sequence has NCBI accession #AF264724. The ARE containing pG5luc plasmid is described in detail in Patki et al., 2013, J Biol Chem, 288:11047-11065. The lentiviral vector expressing ARE-luciferase reporter was then packaged in lentivirus and parental HeLa cells were infected as described below under the heading “Lentivirus-mediated-Transduction.” After 72h of infection, 400 ug/mL of Geneticin was added to the culture medium to select for the transduced cells. These cells were then infected with the lentivirus containing the full length AR expression plasmid described above. After 72h of infection, 2 ug/mL of Puromycin was added to the culture medium to select for the transduced cells. Clonal cells harboring both the ARE-promoter-luciferase reporter and also stably expressing AR were then isolated using cloning cylinders as described above. The selected clones were further expanded and then tested for luciferase induction by testosterone. The clone that gave the greatest luciferase signal to noise ratio in response to testosterone treatment was then chosen for use in the counter screening assay for high throughput small molecule screening. All of the plasmid constructs generated above were sequenced to verify DNA sequences before, the constructs were used.
For high throughput screening, recombinant primary screening cells were first depleted of hormone by growing them for 24h in medium in which the serum used was heat-inactivated and charcoal-stripped. The cells were then plated in 384-well white flat bottom plates (5,000 cells/well) (Corning Product #3570) using a Multidrop (Thermo Fisher Scientific, Waltham, Mass.). […]

C4-2 cells = test: Cell growth assay; assay type: cell-based
From the text: FIG. 16C is a graph showing the effect of 5′-Fluoro-5,3′-Dihydroxyflavone at various concentrations on growth of C4-2 cells.

ZR-75-1 cells = test: Breast cancer cell growth, MTT assay; assay type: cell-based
Experimental: FIG. 17A is a graph showing the effect on growth of various concentrations of 5,3′-Dihydroxyflavone on breast cancer cell line ZR-75-1 using the MTT assay.
Twenty four hours after plating the cells, they were treated with the indicated concentrations of the compound.

ELK1 = molecular target: T1, ELK1 (Homo sapiens, UniProt P19419); test: Surface plasmon resonance, compound binding to immobilized ELK1; details: SPR
T1 construct: His; made in house; host or cells: baculovirus infected Sf9 cells
T1 sequence (P19419 whole entry): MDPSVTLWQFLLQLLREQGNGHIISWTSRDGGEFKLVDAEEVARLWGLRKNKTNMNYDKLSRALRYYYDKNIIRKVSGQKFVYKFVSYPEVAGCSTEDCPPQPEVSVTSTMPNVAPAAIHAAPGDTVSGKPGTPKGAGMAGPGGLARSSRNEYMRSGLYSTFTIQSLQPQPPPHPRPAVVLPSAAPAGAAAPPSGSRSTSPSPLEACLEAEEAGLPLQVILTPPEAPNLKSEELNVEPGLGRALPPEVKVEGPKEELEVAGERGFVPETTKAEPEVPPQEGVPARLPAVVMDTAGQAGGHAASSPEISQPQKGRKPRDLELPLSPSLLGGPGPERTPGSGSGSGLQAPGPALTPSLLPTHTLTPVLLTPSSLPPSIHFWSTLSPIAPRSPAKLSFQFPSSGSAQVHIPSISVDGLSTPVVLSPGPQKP

[2] = tested on: hormone-independent promoter activation by the splice variant AR-V7; test: Gal4-ELK1 reporter activation by AR-V7 in transfected HeLa cells; assay type: cell-based; details: 10 uM or 20 uM
Experimental: FIG. 10 is a graph showing results of co-transfection of HeLa cells with the Gal4-TATA-Luc construct and the Gal4-ELK1 fusion protein expression plasmid. The cells were also co-transfected with either the AR-V7 expression plasmid (pLVX-AR-V7) or the corresponding vector plasmid (pLVX). At the time of transfection with AR-V7, the cells were also treated with KCI807 (10 uM or 20 uM) or with the vehicle control. Promoter activity was measured in terms of reporter luciferase activity. In all panels, the error bars represent standard deviation of experimental triplicates. *P<0.05
Hela Cells were plated in a 24-well plate at a concentration of 75,000 cells/well in antibiotic-free red DMEM. The following day the cells were transfected with a total of 300 ng of plasmid DNA/well using Lipofectamine 2000. The cells were incubated for 24h then lysed using luciferase assay lysis buffer 5X from Promega. The luciferase activity of the cell lysates were measured using firefly substrate from Promega and a luminometer (Lumat LB9501, Berthold, Wildbad, Germany).
The relatively higher concentrations of the compound required for this inhibition is likely because AR-V7 was overexpressed in the assay system.

[3] = mouse, in vivo
[4] = Metabolism in pooled human liver microsomes (HLM) with or without NADPH; assay type: in vitro ADME; details: HLM 0.05 mg/ml, 30 minutes, 37° C.
Experimental: BD UltraPool human liver microsomes (HLM) 150 and the NAPDH regenerating system solution A and B were obtained from Corning Inc. Pooled HLM were used to determine percentage of metabolism of 5,3′-Dihydroxyflavone and 5,3-Dihydroxy-4′-methylflavone. The compounds (20 μM) were co-incubated with HLM (0.05 mg/ml) in the presence or absence of NAPDH for 30 minutes in a 37° C. water bath. At the end of the microsome reaction, the reaction was quenched with 1000 μl ethyl acetate. The mixture was vortexed and centrifuged at 13,000 rpm for 15 minutes, the supernatant was then subjected to high-performance liquid chromatography with tandem mass spectrometry ([…]) analysis.

With CNC(=O)c1ccc(N2C(=S)N(c3ccc(C#N)c(C(F)(F)F)c3)C(=O)C2(C)C)cc1F [enzalutamide] the “inhibition of ARE-dependent promoter activation by AR (in words)” value [1] was “completely suppressed the signal”.

With O=c1cc(-c2cc(O)cc(F)c2)oc2cccc(O)c12 [5′-fluoro-5,3′-dihydroxyflavone] the “growth inhibition of C4-2 cells” value (C4-2 cells) was “inhibited growth”.

For O=c1cc(-c2cccc(O)c2)oc2cccc(O)c12 [KCI807, 5,3′-dihydroxyflavone], the “growth of ZR-75-1 cells” value (ZR-75-1 cells) was “did not inhibit the growth”, the “binding to immobilized ELK1” value (ELK1) was “did not bind” and the “inhibition of promoter activation by AR-V7” value [2] was “inhibited”. For the same compound, the “symptoms during the study, 22Rv1 xenograft” value [3] was “asymptomatic”, the “weight loss (in words), 22Rv1 xenograft” value [3] was “did not show appreciable weight loss” and the “compound concentration after HLM incubation, Control (absence of NADPH), replicate” value [4] was 973 nM and 981 nM and 1006 nM. The “compound concentration after HLM incubation, NADPH treated, replicate” value [4] was 796 nM and 725 nM and 863 nM, the “mean compound concentration, Control (absence of NADPH)” value [4] was 986 nM and the “mean compound concentration, NADPH treated” value [4] was 795 nM. The “percentage metabolized (%)” value ([4]; NADPH) was 19.4%.
